# Assay results as given in paper PMC11127330, “Repurposing harmaline as a novel approach to reverse tmexCD1-toprJ1-mediated tigecycline resistance against klebsiella pneumoniae infections” (Microbial Cell Factories, 2024).
# Target: T1, TMexD1 (Klebsiella pneumoniae, UniProt A0A411AKL6)
# T1 construct: GST fusion from pGEX-6P-1-tmexD1 (BamHI/XhoI), E. coli BL21(DE3); plasmid-borne gene of tmexCD1-toprJ1
# Assay: circular dichroism, secondary structure change
# Details: harmaline 128 mg/L; 190-260 nm; indirect evidence of binding
# T1 sequence (A0A411AKL6 entry or part of it): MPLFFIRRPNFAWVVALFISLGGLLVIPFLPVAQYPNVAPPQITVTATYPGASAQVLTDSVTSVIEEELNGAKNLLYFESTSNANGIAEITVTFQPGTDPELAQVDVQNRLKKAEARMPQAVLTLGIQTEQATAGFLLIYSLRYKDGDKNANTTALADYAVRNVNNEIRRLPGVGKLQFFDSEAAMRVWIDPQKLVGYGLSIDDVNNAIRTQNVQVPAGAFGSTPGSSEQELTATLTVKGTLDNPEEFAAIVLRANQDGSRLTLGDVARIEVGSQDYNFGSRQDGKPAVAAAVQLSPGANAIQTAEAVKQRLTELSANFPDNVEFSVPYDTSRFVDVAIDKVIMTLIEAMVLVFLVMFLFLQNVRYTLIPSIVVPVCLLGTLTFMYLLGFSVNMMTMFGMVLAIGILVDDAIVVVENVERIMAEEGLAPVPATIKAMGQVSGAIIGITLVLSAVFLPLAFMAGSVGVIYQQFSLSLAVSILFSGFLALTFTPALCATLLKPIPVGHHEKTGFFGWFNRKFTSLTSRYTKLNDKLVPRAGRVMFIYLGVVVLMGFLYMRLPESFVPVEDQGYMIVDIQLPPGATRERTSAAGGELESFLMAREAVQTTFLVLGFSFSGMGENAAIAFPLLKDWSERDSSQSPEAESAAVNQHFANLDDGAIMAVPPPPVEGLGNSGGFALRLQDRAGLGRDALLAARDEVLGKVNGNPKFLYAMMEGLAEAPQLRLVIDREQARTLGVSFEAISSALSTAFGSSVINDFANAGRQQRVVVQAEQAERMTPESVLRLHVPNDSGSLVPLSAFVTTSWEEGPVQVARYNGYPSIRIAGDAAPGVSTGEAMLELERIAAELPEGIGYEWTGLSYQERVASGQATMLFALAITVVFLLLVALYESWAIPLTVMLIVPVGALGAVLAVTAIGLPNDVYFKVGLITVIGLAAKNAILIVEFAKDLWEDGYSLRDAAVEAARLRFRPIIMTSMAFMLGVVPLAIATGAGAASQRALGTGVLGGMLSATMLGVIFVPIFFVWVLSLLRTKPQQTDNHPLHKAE
smiles,measurement,value
COc1ccc2c3c([nH]c2c1)C(C)=NCC3 [harmaline],"circular dichroism, secondary structure change",TMexD1 (Fig. 7C and D) and TOprJ1 (Fig. 7E and F) were observed by harmaline treatment
